In data set [1] the test system is ulcer formation. Put plainly: Ulcerogenic potential. The data set is classed as in vivo, male wistar. The conditions noted are these: oral, 4 hours after administration. As for the experimental part:
Ulcerogenic Potential In order to evaluate the compound's role on the ulcer formation, the animals were sacrificed and the stomach was taken out and flushed with 1% formalin. Animals (male wistar 200 g) were fasted for 18 hours with free access to water and the test compounds were suspended in 0.5% Tween 80 and 0.25% CMC (carboxymethylcellulose) solution to make a uniform suspension. After 4 hours of oral administration of test compounds, all the animals were sacrificed by cervical dislocation. The stomach was dissected carefully and filled up with a sterile saline solution and embedded in 6% formalin solution. […] The test compound treated groups were compared with the vehicle treated groups. […]

Data set [2] concerns T1, PDE4.
T1 construct: other: 10 μM, source human U937 cells; PDE4 at 10 μm
Briefly: PDE4 activity (source human U937 cells). The data set is classed as biochemical. The following applies: 10 μM, source human U937 cells. As for the experimental part:
PDE4 inhibition was measured by following a literature assay procedure (Cortizo J et al., Br J. Pharmacol., 1993, 108: 562-568. The assay method involves the following conditions.
Substrate: 1.01 μM [^3H] camp+camp
Pre-Incubation Time/Temperature: 15 minutes at 25° C.
Incubation Time/Temperature. 20 minutes at 25° C.
Incubation buffer: 50 mM Tris-HCl, pH 7.5, 5 mM MgCl2
Quantitation method: Quantitation of [^3H] Adenosine
Significance criteria: ≧50% of max stimulation or inhibition

The test system of data set [3] is purified recombinant COX-1. Put plainly: COX-1 enzyme based assay. The class given is biochemical. The protocol:
COX-1 and COX-2 enzyme based assays were carried out to check the inhibitory potential of the test compounds on the production of prostaglandin by purified recombinant COX-1/COX-2 enzyme (Proc. Nat. Acad. Sci. USA, 88, 2692-2696, 1991; J. Clin. Immunoassay 15, 116-120, 1992). In this assay, the potential of the test compound to inhibit the production of prostaglandin either by COX-1 or COX-2 from arachidonic acid (substrate) was measured. This was an enzyme based in-vitro assay to evaluate selective COX inhibition with good reproducibility.
Arachidonic acid was converted to PGH2 (Intermediate product) by COX1/COX-2 in the presence or absence of the test compound. The reaction was carried out at 37° C. and after 2 minutes it was stopped by adding 1M HCl. Intermediate product PGH2 was converted to a stable prostanoid product PGF2α by SnCl2 reduction. The amount of PGF2α produced in the reaction was inversely proportional to the COX inhibitory potential of the test compound. The prostanoid product was quantified via enzyme immunoassay (EIA) using a broadly specific antibody that binds to all the major forms of prostaglandin, using Cayman ELISA kit as per the procedure outlined by the manufacturer (Cayman Chemicals, Ann Arbor, USA).

Each structure is given as a SMILES string.

Usually melting point stands for the temperature, or range, at which the solid turns liquid.

Regarding `CNS(=O)(=O)c1ccc(-c2c(Cl)nc(C(F)(F)F)nc2-c2ccc(S(C)(=O)=O)cc2)cc1` [Example 4, 4-{4-chloro-6-[4-(methylsulfonyl)phenyl]-2-(trifluoromethyl)pyrimidin-5-yl}-N-methylbenzenesulfonamide], the melting point fell in the range of 226 to 230 °C. In addition, the “Ulcer incidence at 5 mg/kg” value in data set [1] is “Nil”.
`CS(=O)(=O)c1ccc(-c2nc(C(F)(F)F)nc(N3CCN(Cc4ccncc4)CC3)c2-c2ccccc2)cc1` [Example 46, 4-[4-(Methylsulfonyl)phenyl]-5-phenyl-6-[4-(pyridin-4-ylmethyl)piperazin-1-yl]-2-(trifluoromethyl)pyrimidine] yielded a melting point of 228 to 232 °C.
Turning to `Fc1ccc(-c2nc(C(F)(F)F)nc(NC3CC3)c2-c2ccccc2)cc1` [Example 175, N-Cyclopropyl-6-(4-fluorophenyl)-5-phenyl-2-(trifluoromethyl)pyrimidin-4-amine], the “PDE4 inhibition at 10 μM (%)” value in data set [2] turned out to be 88%.
Take `NS(=O)(=O)c1cccc(-c2c(-c3ccccc3)nc(C(F)(F)F)nc2N2CCN(c3ccccn3)CC2)c1` [Example 58]: the “% Inhibition in rEnzyme Assay COX-1” value in data set [3] (1 μM) was found to be 10.22%; in data set [3] (10 μM), 9.59%.
Regarding `N#CCCN1CCN(c2nc(C(F)(F)F)nc(-c3ccc(F)cc3)c2-c2cccc(S(N)(=O)=O)c2)CC1` [Example 100, 3-{4-[4-(2-cyanoethyl)piperazin-1-yl]-6-(4-fluorophenyl)-2-(trifluoromethyl)pyrimidin-5-yl}benzenesulfonamide], the “PDE4 inhibition at 10 μM (%)” value in data set [2] was 92%.
The same measure, in the same setting: to `NS(=O)(=O)c1cccc(-c2c(-c3ccccc3)nc(C(F)(F)F)nc2N2CCC(=O)CC2)c1` [Example 179, 3-[6-Phenyl-4-(4-oxopiperidin-1-yl)-2-(trifluoromethyl)pyrimidin-5-yl]benzenesulfonamide] belongs 84%.
On the same count and under the same terms, then `NS(=O)(=O)c1cccc(-c2c(-c3ccc(F)cc3)nc(C(F)(F)F)nc2N2CCN(C(=O)C(F)(F)F)CC2)c1` [Example 109, 3-{6-(4-Fluorophenyl)-4-[4-(trifluoroacetyl)piperazin-1-yl]-2-(trifluoromethyl)pyrimidin-5-yl}benzenesulfonamide], with 90%.
Still for that read-out and setting: then `NS(=O)(=O)c1cccc(-c2c(-c3ccc(F)cc3)nc(C(F)(F)F)nc2N2CCN(S(=O)(=O)C(F)(F)F)CC2)c1` [Example 77, 5-(3-Aminosulfonylphenyl)-4-(4-fluorophenyl)-2-(trifluoromethyl)-6-{4-[(trifluoromethyl)sulfonyl]piperazin-1-yl}pyrimidine], with 94%.
On to `NS(=O)(=O)c1cccc(-c2c(-c3ccc(F)cc3)nc(C(F)(F)F)nc2N2CCN(c3ccccn3)CC2)c1` [Example 53, 3-[4-(4-Fluorophenyl)-6-(4-pyridin-2-ylpiperazin-1-yl)-2-(trifluoromethyl)pyrimidin-5-yl]benzenesulfonamide], for which the “% Inhibition in rEnzyme Assay COX-1” value is 46.29% in data set [3] (1 μM) and 56.85% in data set [3] (10 μM).
Regarding `NS(=O)(=O)c1cccc(-c2c(-c3ccccc3)nc(C(F)(F)F)nc2N2CCN(c3ncccn3)CC2)c1` [Example 57], in data set [3] (10 μM), the “% Inhibition in rEnzyme Assay COX-1” value is on record as 5.7%.
Turning to `FC(F)(F)c1nc(-c2ccccc2)c(-c2ccccc2)c(N2CCN(c3ccccn3)CC2)n1` [Example 48, 4,5-diphenyl-6-(4-pyridin-2-yl-piperazin-1-yl)-2-(trifluoromethyl)pyrimidine], the melting point fell in the range of 165 to 167 °C.
`NS(=O)(=O)c1cccc(-c2c(-c3ccccc3)nc(C(F)(F)F)nc2N2CCNCC2)c1` [Example 51, 3-[4-Phenyl-6-piperazin-1-yl-2-(trifluoromethyl)pyrimidin-5-yl]benzenesulfonamide]: the “% Inhibition in rEnzyme Assay COX-1” value in data set [3] (1 μM) is reported as 8.27%; in data set [3] (10 μM) it was 7.1%.
Consider `CS(=O)(=O)c1ccc(-c2nc(C(F)(F)F)nc(NN)c2-c2ccc(S(=O)(=O)NN)cc2)cc1` [Example 7, 4-{4-hydrazino-6-[4-(methylsulfonyl)phenyl]-2-(trifluoromethyl)pyrimidin-5-yl}benzenesulfonohydrazide], for which the melting point was in the range of 203 to 206 °C.
Regarding `NS(=O)(=O)c1cccc(-c2c(-c3ccccc3)nc(C(F)(F)F)nc2N2CCN(C(=O)C(F)(F)F)CC2)c1` [Example 173, 3-{6-Phenyl-4-[4-(trifluoroacetyl)piperazin-1-yl]-2-(trifluoromethyl)pyrimidin-5-yl}benzenesulfonamide], in data set [2], the “PDE4 inhibition at 10 μM (%)” value was found to be 87%.
On the same count and under the same terms, to `NS(=O)(=O)c1cccc(-c2nc(C(F)(F)F)nc(-n3ccnc3)c2-c2ccccc2)c1` [Example 167, 3-[4-(1H-imidazol-1-yl)-5-phenyl-2-(trifluoromethyl)pyrimidin-6-yl]benzenesulfonamide] belongs 82%.
For the compound `NS(=O)(=O)c1cccc(-c2c(-c3ccccc3)nc(C(F)(F)F)nc2N2CCN(c3ccc(C(F)(F)F)cn3)CC2)c1` [Example 116, 3-[6-{4-[5-(trifluoromethyl)pyridin-2-yl]piperazin-1-yl}-4-phenyl-2-(trifluoromethyl)pyrimidin-4-yl]benzenesulfonamide], the entries for the “% Inhibition in rEnzyme Assay COX-1” value in data set [3] (1 μM) and in data set [3] (10 μM) were 6.29% and 19.24%, respectively.
Turning to `CS(=O)(=O)c1ccc(-c2nc(C(F)(F)F)nc(OS(=O)(=O)c3cccc4ccccc34)c2-c2ccccc2)cc1` [Example 18, 6-[4-(methylsulfonyl)phenyl]-5-phenyl-2-(trifluoromethyl)pyrimidin-4-yl napthalenesulfonate], the melting point is 204 to 206 °C.
On the same count and under the same terms, then `CS(=O)(=O)c1ccc(-c2nc(C(F)(F)F)nc(N3CCN(c4ccccn4)CC3)c2-c2ccccc2)cc1` [Example 49, 4-[4-(Methylsulfonyl)phenyl]-5-phenyl-6-(4-pyridin-2-yl-piperazin-1-yl)-2-(trifluoromethyl)pyrimidine], with 229 to 233 °C; and `O=C(NNc1nc(C(F)(F)F)nc(-c2ccncc2)c1-c1ccc(F)cc1)C(F)(F)F` [Example 14, 2,2,2-trifluoro-N′-[5-(4-fluorophenyl)-6-pyridin-4-yl-2-(trifluoromethyl)pyrimidin-4-yl]acetohydrazide], with 240 to 242 °C.
In the case of `NS(=O)(=O)c1cccc(-c2c(-c3ccc(F)cc3)nc(C(F)(F)F)nc2N2CCN(c3ncccn3)CC2)c1` [Example 54, 3-[4-(4-Fluorophenyl)-6-(4-pyrimidin-2-ylpiperazin-1-yl)-2-(trifluoromethyl)pyrimidin-5-yl]benzenesulfonamide], the entries for the “% Inhibition in rEnzyme Assay COX-1” value in data set [3] (1 μM) and in data set [3] (10 μM) were 34.42% and 45.53%, respectively.
Regarding `CC(=O)NS(=O)(=O)c1ccc(-c2c(Cl)nc(C(F)(F)F)nc2-c2ccc(S(C)(=O)=O)cc2)cc1` [Example 17, N-[(4-{4-chloro-6-[4-(methylsulfonyl)phenyl]-2-(trifluoromethyl)pyrimidin-5-yl}phenyl)sulfonyl]acetamide], the melting point lay within 230 to 235 °C.
Still for that read-out and setting: then `CS(=O)(=O)c1ccc(-c2nc(C(F)(F)F)nc(N3CCN(Cc4ccc([N+](=O)[O-])s4)CC3)c2-c2ccccc2)cc1` [Example 47, 6-[4-(Methylsulfonyl)phenyl]-4-{4-[(5-nitro-2-thienyl)methyl]piperazin-1-yl}-5-phenyl-2-(trifluoromethyl)pyrimidine], with 168 to 174 °C.
For `CNc1nc(C(F)(F)F)nc(-c2ccc(S(C)(=O)=O)cc2)c1-c1ccc(S(=O)(=O)NC)cc1` [Example 5, 4-{4-(Methylamino)-6-[4-(methylsulfonyl)phenyl]-2-(trifluoromethyl)pyrimidin-5-yl}-N-methylbenzenesulfonamide], the “Ulcer incidence at 5 mg/kg” value in data set [1] is reported as “Nil”.
Turning to `CNS(=O)(=O)c1ccc(-c2c(N)nc(C(F)(F)F)nc2-c2ccc(S(C)(=O)=O)cc2)cc1` [Example 2, 4-{4-Amino-6-[4-(methylsulfonyl)phenyl]-2-(trifluoromethyl)pyrimidin-5-yl}-N-methylbenzenesulfonamide], the results for the “% Inhibition in rEnzyme Assay COX-1” value in data set [3] (1 μM) and in data set [3] (10 μM) were 33.84% and 50.41%, respectively.
`CS(=O)(=O)c1ccc(-c2nc(C(F)(F)F)nc(Cl)c2-c2ccc(S(=O)(=O)Cl)cc2)cc1` [Example 3, 4-{4-chloro-6-[4-(methylsulfonyl)phenyl]-2-(trifluoromethyl)pyrimidin-5-yl}benzenesulfonyl chloride] returned a melting point of 207 to 210 °C.

(Values after US8420653B2, “Pyrimidine compounds and their uses” (Orchid Chemicals & Pharmaceuticals Limited, priority 2008, dated 2013).)
